In the CheMixHub viscosity set:
± gives the uncertainty stated by the source.

Assay: xn = mol fraction of the nth substance listed

CCC(C)(C)O + CC#N
298.15 K, 101 kPa
Conditions | viscosity [mPa·s]
x1 = 0.1002 | 0.387 ± 0.059
x1 = 0.1989 | 0.45 ± 0.066
x1 = 0.2988 | 0.543 ± 0.077
x1 = 0.3988 | 0.667 ± 0.09
x1 = 0.4964 | 0.832 ± 0.11
x1 = 0.6004 | 1.069 ± 0.14
x1 = 0.6969 | 1.375 ± 0.17
x1 = 0.7994 | 1.832 ± 0.22
x1 = 0.8983 | 2.493 ± 0.29
x1 = 0.958 | 3.032 ± 0.35

CCCCN(CCCC)CCCC + CC(C)(C)O
viscosity [mPa·s], 101 kPa
Conditions | x2 = 0.0998 | x2 = 0.2 | x2 = 0.3 | x2 = 0.4 | x2 = 0.5001 | x2 = 0.5999 | x2 = 0.7 | x2 = 0.8 | x2 = 0.9006 | x2 = 0.9503
303.15 K | 1.189 ± 0.015 | 1.202 ± 0.015 | 1.267 ± 0.016 | 1.324 ± 0.016 | 1.394 ± 0.017 | 1.499 ± 0.018 | 1.637 ± 0.02 | 1.878 ± 0.023 | 2.323 ± 0.029 | 2.732 ± 0.033
308.15 K | 1.083 ± 0.014 | 1.108 ± 0.014 | 1.145 ± 0.014 | 1.189 ± 0.015 | 1.242 ± 0.015 | 1.323 ± 0.016 | 1.43 ± 0.017 | 1.598 ± 0.019 | 1.91 ± 0.023 | 2.204 ± 0.027
313.15 K | 0.9915 ± 0.012 | 1.009 ± 0.013 | 1.037 ± 0.013 | 1.072 ± 0.013 | 1.112 ± 0.014 | 1.172 ± 0.014 | 1.251 ± 0.015 | 1.376 ± 0.017 | 1.599 ± 0.019 | 1.809 ± 0.022
318.15 K | 0.9113 ± 0.011 | 0.9236 ± 0.011 | 0.9451 ± 0.012 | 0.9707 ± 0.012 | 1.003 ± 0.012 | 1.048 ± 0.013 | 1.104 ± 0.013 | 1.197 ± 0.015 | 1.356 ± 0.016 | 1.514 ± 0.018
323.15 K | 0.8405 ± 0.011 | 0.8479 ± 0.011 | 0.8641 ± 0.011 | 0.8824 ± 0.011 | 0.908 ± 0.011 | 0.9401 ± 0.011 | 0.9817 ± 0.012 | 1.051 ± 0.013 | 1.166 ± 0.014 | 1.288 ± 0.016

C=CC#N + CO
viscosity [mPa·s], 101.33 kPa
Conditions | x1 = 0.1021 | x1 = 0.2197 | x1 = 0.302 | x1 = 0.4017 | x1 = 0.5035 | x1 = 0.6614 | x1 = 0.6991 | x1 = 0.7966 | x1 = 0.8985
298.15 K | 0.483 ± 0.007 | 0.435 ± 0.007 | 0.41 ± 0.006 | 0.388 ± 0.006 | 0.367 ± 0.006 | 0.351 ± 0.006 | 0.346 ± 0.006 | 0.34 ± 0.005 | 0.338 ± 0.005
303.15 K | 0.453 ± 0.007 | 0.41 ± 0.006 | 0.387 ± 0.006 | 0.367 ± 0.006 | 0.354 ± 0.006 | 0.337 ± 0.005 | 0.329 ± 0.005 | 0.325 ± 0.005 | 0.322 ± 0.005
308.15 K | 0.428 ± 0.006 | 0.387 ± 0.006 | 0.366 ± 0.006 | 0.348 ± 0.006 | 0.331 ± 0.005 | 0.318 ± 0.005 | 0.315 ± 0.005 | 0.311 ± 0.005 | 0.309 ± 0.005

CCC(C)(C)O + CCCCCO
viscosity [mPa·s], 101 kPa
Conditions | 298.15 K | 318.15 K
x2 = 0.051 | 3.666 ± 0.095 | 1.715 ± 0.045
x2 = 0.1017 | 3.812 ± 0.099 | 1.782 ± 0.047
x2 = 0.2023 | 4.096 ± 0.11 | 1.867 ± 0.049
x2 = 0.3041 | 4.309 ± 0.11 | 1.974 ± 0.052
x2 = 0.4034 | 4.432 ± 0.12 | 2.058 ± 0.054
x2 = 0.4972 | 4.456 ± 0.12 | 2.122 ± 0.055
x2 = 0.5939 | 4.415 ± 0.12 | 2.167 ± 0.057
x2 = 0.6991 | 4.251 ± 0.11 | 2.195 ± 0.057
x2 = 0.8003 | 4.112 ± 0.11 | 2.187 ± 0.057
x2 = 0.9012 | 3.939 ± 0.1 | 2.174 ± 0.057
x2 = 0.9496 | 3.831 ± 0.1 | 2.161 ± 0.056
